Results as given in patent US9801919B2, “Oral compositions containing enhanced antibacterial combinations of antioxidants and extracts of magnolia” (WM. WRIGLEY JR. COMPANY, priority 2008, dated 2017).

Tests used:
S. mutans [1] = test: MIC and FIC of MBE and common antioxidants against S. mutans (broth two-fold dilution); assay type: cell-based, Streptococcus mutans; conditions: sample alone, lowest concentration with no visible growth, aerobic 37° C., 1 to 2 days; for MIC: Streptococcus mutans
Description: (§1) To evaluate an enhanced effect of an active ingredient in combination of magnolia with antioxidant, the fractional inhibitory index (FIC) is computed according to equation (1): […]
The following tests were conducted on S. mutans.
BHA, gallic acid, octyl gallate and magnolia bark extract (MBE) sample were dissolved in ethanol to produce 1-10% working solution and was added to a nutrient broth and shaken well and was diluted two-fold in individual test tubes. A total of 0.2 milliliter (mL) of inoculated bacteria culture purchased from American Type Culture Collection (ATCC) was added to each test tube. The tubes were incubated aerobically at 37° C. for 1 to 2 days. […] FIC values were determined by equation 1.

S. sobrinus = test: MIC and FIC of MBE and common antioxidants against S. sobrinus (broth two-fold dilution); assay type: cell-based, Streptococcus sobrinus; conditions: sample alone, lowest concentration with no visible growth, aerobic 37° C., 1-2 days; for MIC: Streptococcus sobrinus
Description: as §1
S. Sobrinus, another common pathogen associated with dental plaque is also associated with dental caries.
BHA, BHT, gallic acid, octyl gallate and magnolia bark extract (MBE) samples were dissolved in ethanol to produce 1-10% working solution and was added to a nutrient broth and shaken well and was diluted two-fold in individual test tubes A total of 0.2 mL of inoculated bacteria culture purchased from ATCC was added to each test tube. The tubes were incubated aerobically at 37° C. for 1-2 days.

S. mutans [2] = conditions: active principles of Magnolia Cortex extracts; cited from earlier work

MIC (S. sobrinus) [µg/mL]	Compound	bactericidal against S. mutans in in vitro MIC test (S. mutans [2])	also measured
	COc1ccc(O)c(C(C)(C)C)c1 [BHA, butylated hydroxyanisole]		MIC (ppm) (S. mutans [1]): 250 ppm; MIC (ppm) (S. sobrinus): 500 ppm
> 2000	Cc1cc(C(C)(C)C)c(O)c(C(C)(C)C)c1 [BHT, butylated hydroxytoluene]		
> 2000	O=C(O)c1cc(O)c(O)c(O)c1 [Gallic acid]		MIC (S. mutans [1]): > 2000 µg/mL
250	CCCCCCCCOC(=O)c1cc(O)c(O)c(O)c1 [Octyl gallate]		MIC (S. mutans [1]): 250 µg/mL
	C=CCc1ccc(O)c(-c2ccc(O)c(CC=C)c2)c1 [honokiol]	bactericidal	
	C=CCc1ccc(O)c(-c2cc(CC=C)ccc2O)c1 [magnolol]	bactericidal	
	CCCc1ccc(O)c(-c2ccc(O)c(CCC)c2)c1 [tetrahydrohonokiol]	bactericidal	
	CCCc1ccc(O)c(-c2cc(CCC)ccc2O)c1 [tetrahydromagnolol]	bactericidal	
